# Source: US8461382B2, “Ionic liquids” (BASF SE, priority 2007, dated 2013)
# Tests used:
# [1] = Decomposition point (commencement of decomposition) of 2,5,8,11-tetraoxatridecan-13-oates; assay type: physicochemical
# Excerpt: (§1) Melting and decomposition points (commencement of decomposition) and viscosities of various 2,5,8,11-tetraoxatridecan-13-oates.
# [2] = Electrical conductivity, fluorescence and surface tension measurements in aqueous solution; assay type: physicochemical; conditions: concluded from conductivity and fluorescence or surface tension measurements in aqueous medium
# Excerpt: (§2) Owing to the amphiphilic and thus solubilizing properties, the ionic liquid of example 6 has a wider solvent spectrum than conventional ionic liquids. Furthermore, it can be concluded that the ionic liquid of example 6 has structuring properties in water, organic solvents and in particular also in the pure state. Accordingly, it can serve, for example, as template in the mineralization processes (e.g. for mesoporous silicates). Furthermore, the ionic liquid of example 6 is liquid at room temperature (for melting point, see Table 1).
# [3] = Viscosity of the ionic liquids at 25° C.; assay type: physicochemical
# Protocol: (§3) The viscosity at 25° C. at a low shear rate is in the order of one million millipascal seconds.
# as §1
# ^1All liquids examined behaved as Newtonian fluids
# [4] = Miscibility of the ionic liquid with water and organic solvents; assay type: physicochemical
# Protocol: as §3, §2
# [5] = Solubility experiments: salts and olive oil dissolved in TEGMECH2COONa; assay type: physicochemical
# Protocol: Solubility experiments were carried out using the sodium 2,5,8,11-tetraoxatridecan-13-oate synthesized as described in example 1.
# The solubility of olive oil in a concentration of up to 10% by weight in TEGMECH2COONa is particularly worthy of mention with regard to the environmental compatibility of the sodium salt.
compound,measurement,setting,value
"calcium di(2,5,8,11-tetraoxatridecan-13-oate) [Example 4]",Decomposition point,[1],320 °C
"dodecylammonium 2,5,8,11-tetraoxatridecan-13-oate [Example 6]",Character in aqueous solution,[2],surfactant character
same,Decomposition point,[1],165 °C
same,Viscosity,[3]; at 25° C.,4.67 · 10^2 mPa · s
same,Miscibility with water,[4],mixes with water in any ratio
CCCCCCCCCCN.COCCOCCOCCOCC(=O)O [Example 8],Decomposition point,[1],156 °C
same,Viscosity,[3]; at 25° C.,4.00 · 10^2 mPa · s
"COCCOCCOCCOCC(=O)[O-].[Na+] [Example 1, sodium 2,5,8,11-tetraoxatridecan-13-oate]",Solubility of magnesium sulfate in the ionic liquid,[5]; 120° C.,appreciably soluble
same,Solubility of ammonium nitrate in the ionic liquid,[5]; room temperature,readily soluble
same,Solubility of NaCl in the ionic liquid,[5]; temperatures above 100° C.,dissolves in low concentrations
same,Decomposition point,[1],384 °C
same,Viscosity,[3]; at 25° C.,1.64 · 10^5 mPa · s
same,Viscosity,"[3]; at 25° C. at a low shear rate, order of magnitude",one million
same,Miscibility with acetone,[4]; acetone,miscible in any ratio
same,Miscibility with dichloromethane,[4]; dichloromethane,miscible in any ratio
same,Miscibility with diethyl ether,[4]; diethyl ether,partially miscible
same,Miscibility with pentanol,[4]; pentanol,miscible in any ratio
same,Miscibility with water,[4],miscible in any ratio
"COCCOCCOCCOCC(=O)[O-].[K+] [Example 3, potassium 2,5,8,11-tetraoxatridecan-13-oate]",melting point,,59.1 °C
same,Decomposition point,[1],369 °C
"COCCOCCOCCOCC(=O)O [Example 5, hexylammonium 2,5,8,11-tetraoxatridecan-13-oate]",Character in aqueous solution,[2],hydrotropic character
same,Viscosity,[3]; at 25° C.,2.40 · 10^2 mPa · s
same,Viscosity,[3]; order of magnitude,~20 000 mPas
CCCCCCCCN.COCCOCCOCCOCC(=O)O [Example 7],Decomposition point,[1],145 °C
same,Viscosity,[3]; at 25° C.,3.75 · 10^2 mPa · s
